From the supplement of paper PMC10307832

Columns and labels:
Assay in all cases: relative viability (nuclei count vs DMSO), 5 days (fraction); higher = more cells survive
[1] = compound: C1CN(CCC1C(C2=CC3=C(C=C2)OCO3)(C4=CC5=C(C=C4)OCO5)O)C(=O)OC6=CC=C(C=C6)[N+](=O)[O-] [JZL-184] + CC(=O)c1c(C)c2cnc(Nc3ccc(N4CCNCC4)cn3)nc2n(C2CCCC2)c1=O [Palbociclib] (partner 0.5 µM)
How it was run: (§1)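 Lung cancer cell lines in 1536-well plates were dosed by pin tool the day after seeding, either with one drug alone or with a fixed anchor-drug dose plus five library-drug doses (not always all listed) in √10 steps. After 5 days, cells were fixed and their nuclei stained in one step (final 0.05% Triton X-100, 1% formaldehyde, 1 ug/ml Hoechst), then counted on 4× images. Relative viability is the nuclei count in treated wells divided by that in vehicle wells. Values are medians of duplicate plates.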

[2] = compound: C1CN(CCC1C(C2=CC3=C(C=C2)OCO3)(C4=CC5=C(C=C4)OCO5)O)C(=O)OC6=CC=C(C=C6)[N+](=O)[O-] [JZL-184] + CC(C)C[C@H](NC(=O)[C@H](Cc1ccccc1)NC(=O)c1cnccn1)B(O)O [Bortezomib] (partner 0.002 µM)
How it was run: as §1

[3] = compound: C1CN(CCC1C(C2=CC3=C(C=C2)OCO3)(C4=CC5=C(C=C4)OCO5)O)C(=O)OC6=CC=C(C=C6)[N+](=O)[O-] [JZL-184] + COc1cc2c(Oc3ccc(NC(=O)C4(C(=O)Nc5ccc(F)cc5)CC4)cc3F)ccnc2cc1OCCCN1CCOCC1 [Foretinib] (partner 0.25 µM)
How it was run: as §1

[4] = compound: C1CN(CCC1C(C2=CC3=C(C=C2)OCO3)(C4=CC5=C(C=C4)OCO5)O)C(=O)OC6=CC=C(C=C6)[N+](=O)[O-] [JZL-184] + Nc1nc2[nH]cc(CCc3ccc(C(=O)N[C@@H](CCC(=O)O)C(=O)O)cc3)c2c(=O)[nH]1 [Pemetrexed] (partner 0.2 µM)
How it was run: as §1

[5] = compound: C1CN(CCC1C(C2=CC3=C(C=C2)OCO3)(C4=CC5=C(C=C4)OCO5)O)C(=O)OC6=CC=C(C=C6)[N+](=O)[O-] [JZL-184] + Nc1ncn([C@H]2C[C@H](O)[C@@H](CO)O2)c(=O)n1 [Decitabine] (partner 2 µM)
How it was run: as §1

Cell Line	relative viability ([1]; first compound 0.04 µM)	relative viability ([1]; first compound 0.4 µM)	relative viability ([1]; first compound 1.265 µM)	relative viability ([1]; first compound 4 µM)	relative viability ([2]; first compound 0.04 µM)	relative viability ([2]; first compound 0.4 µM)	relative viability ([2]; first compound 1.265 µM)	relative viability ([2]; first compound 4 µM)	relative viability ([3]; first compound 0.04 µM)	relative viability ([3]; first compound 0.4 µM)	relative viability ([3]; first compound 1.265 µM)	relative viability ([3]; first compound 4 µM)	relative viability ([4]; first compound 0.04 µM)	relative viability ([4]; first compound 0.4 µM)	relative viability ([4]; first compound 1.265 µM)	relative viability ([4]; first compound 4 µM)	relative viability ([5]; first compound 0.04 µM)	relative viability ([5]; first compound 0.4 µM)	relative viability ([5]; first compound 1.265 µM)	relative viability ([5]; first compound 4 µM)
HOP-62	0.481	0.374	0.453	0.455	1.09	0.862	0.809	0.856	1.16	1.08	1.09	1.03	0.331	0.312	0.306	0.309	0.249	0.197	0.233	0.214
LC-2-ad	0.579	0.504	0.488	0.484	1.16	0.868	0.99	0.942	1.13	0.847	0.886	0.955	0.293	0.278	0.279	0.265	0.687	0.718	0.887	0.787
LCLC-97TM1	0.283	0.195	0.255	0.274	0.612	0.624	0.804	0.573	1.01	0.981	0.979	0.867	0.166	0.17	0.13	0.201	0.228	0.2	0.236	0.216
LCLC-103H	0.438	0.213	0.502	0.511	0.992	1.08	0.985	1.02	0.833	0.682	0.724	0.529	0.495	0.481	0.453	0.477	0.768	0.817	0.815	0.778
LOU-NH91	0.524	0.509	0.558	0.448	0.51	0.419	0.511	0.471	1.02	0.9	1.03	0.939	0.389	0.334	0.381	0.394	0.814	0.837	0.863	0.749
LU99A	0.455	0.36	0.471	0.42	1.29	1.09	1.32	1.22	0.801	0.726	0.873	0.767	0.162	0.12	0.159	0.124	1	0.902	1.01	0.843
LXF-289	0.693	0.564	0.572	0.595	1.01	0.953	1.04	0.933	1.05	0.957	0.997	0.947	0.882	0.779	0.862	0.875	0.438	0.364	0.353	0.388
NCI-H23	0.594	–	0.484	0.486	1.24	0.765	1.21	1.07	0.913	1.01	1.15	1.01	0.772	–	0.704	0.597	0.275	–	0.266	0.328
NCI-H322M	0.483	0.449	0.509	0.451	1.15	1.16	1.27	1.27	1.12	0.932	1.03	0.791	0.591	0.604	0.615	0.538	0.661	0.684	0.678	0.668
NCI-H441	0.207	0.229	0.238	0.236	0.379	0.373	0.227	0.591	1.36	0.907	0.897	1.06	0.277	0.248	0.239	0.285	0.237	0.249	0.188	0.281
NCI-H460	0.147	0.0967	0.149	0.201	1.83	1.05	1.05	1.11	1.03	0.904	0.957	1.02	0.0624	0.0591	0.0649	0.0648	0.629	0.45	0.463	0.442
NCI-H520	0.189	0.221	0.223	0.219	0.648	0.479	0.582	0.531	0.893	0.784	0.831	0.771	0.782	0.483	0.748	0.684	0.546	0.545	0.503	0.477
NCI-H647	0.369	0.285	0.407	0.359	1.32	0.922	1.14	0.974	1.19	1.2	1.27	1.24	0.201	0.161	0.209	0.19	0.455	0.302	0.353	0.426
NCI-H650	0.358	0.292	0.321	0.317	0.912	0.801	1.04	0.738	1.08	1.12	1.09	1.01	0.894	0.924	1.04	1.01	0.308	0.319	0.317	0.306
NCI-H661	0.408	0.378	0.399	0.403	0.763	0.803	0.796	0.889	1.07	1.01	0.992	1.01	0.983	0.858	0.931	0.898	0.624	0.526	0.518	0.537
NCI-H838	0.22	0.259	0.235	0.199	1.13	0.828	0.819	0.636	1.04	1.04	1.14	0.901	0.254	0.236	0.241	0.256	0.551	0.475	0.465	0.467
NCI-H1355	0.376	0.381	0.423	0.4	1.28	1.18	1.18	1.18	1.06	0.936	1.01	0.929	1.06	0.945	1.05	1.04	0.349	0.34	0.36	0.347
NCI-H1437	0.333	0.321	0.297	0.282	0.594	0.512	0.479	0.373	1.27	1.16	1.31	1.21	0.306	0.322	0.309	0.312	0.649	0.611	0.585	0.561
NCI-H1650	0.395	0.368	0.408	0.302	0.192	0.179	0.228	0.198	1.22	1.03	1.35	0.898	0.341	0.391	0.366	0.354	0.405	0.464	0.471	0.425
NCI-H1651	0.547	0.529	0.558	0.519	0.993	0.954	1	0.999	0.798	0.786	0.725	0.788	0.592	0.362	0.411	0.595	0.667	0.358	0.428	0.623
NCI-H1666	0.685	0.642	0.636	0.668	0.98	0.714	0.868	0.904	1.07	0.895	0.942	1	0.802	0.842	0.875	0.865	0.77	0.557	0.701	0.792
NCI-H1734	0.394	0.293	0.37	0.292	1.03	0.842	1.02	0.884	0.982	0.743	0.957	0.771	0.462	0.426	0.419	0.42	0.536	0.494	0.512	0.501
NCI-H1755	0.44	0.451	0.473	0.452	1.13	0.895	0.933	0.859	0.989	0.917	0.933	0.919	0.432	0.367	0.475	0.484	0.751	0.701	0.71	0.704
NCI-H1915	0.506	0.511	0.531	0.511	0.992	0.93	1.03	1.03	1.15	1.01	1.18	1.07	0.506	0.485	0.535	0.534	0.243	0.266	0.272	0.266
NCI-H1975	0.679	0.579	0.614	0.575	0.361	0.419	0.358	0.336	1.02	0.94	0.987	0.87	0.307	0.281	0.296	0.263	0.429	0.368	0.413	0.397
NCI-H1993	0.707	0.604	0.758	0.604	1.17	1.14	1.21	1.22	0.769	0.669	0.758	0.816	0.63	0.577	0.619	0.68	0.572	0.588	0.577	0.559
NCI-H2009	0.172	0.188	0.241	0.219	1.2	0.946	1.02	0.938	1.17	0.809	1.28	1.21	1.14	1.03	1.04	0.994	0.425	0.385	0.363	0.446
NCI-H2023	0.56	0.354	0.393	0.249	1.03	0.947	1.01	0.865	1.01	0.874	0.978	0.79	0.281	0.167	0.258	0.227	0.254	0.225	0.175	0.213
NCI-H2085	–	0.489	0.44	0.469	0.914	1.06	1.04	0.91	0.954	0.827	1.12	0.96	–	0.817	0.948	0.882	–	0.538	0.521	0.627
NCI-H2087	0.231	0.215	0.259	0.227	0.901	0.811	0.845	0.771	1.01	1.03	1.17	1.19	0.667	0.663	0.631	0.636	0.271	0.301	0.415	0.237
